Laboratory results reported in US5656308A, “Non-reducing oligosaccharide with neotrehalose structure, and its production and uses” (Kabushiki Kaisha Hayashibara Seibutsu Kagaku Kenkyujo, priority 1993, dated 1997).

System: mice
Assay: Acute toxicity in mice upon oral administration
Type: in vivo
Method: High-purity β-maltosyl α-glucoside, α-maltosyl β-glucoside, β-maltotriosyl α-glucoside, α-maltotriosyl β-glucoside and β-maltosyl α-maltoside prepared by the method in Experiment 2 were tested for acute toxicity in mice upon oral administration.

OC[C@H]1O[C@@H](O[C@H]2O[C@H](CO)[C@@H](O[C@H]3O[C@H](CO)[C@@H](O)[C@H](O)[C@H]3O)[C@H](O)[C@H]2O)[C@H](O)[C@@H](O)[C@@H]1O [α-maltosyl β-glucoside, O-α-D-glucopyranosyl-(1→4)-α-D-glucopyranosyl β-D-glucopyranoside]
acute toxicity (in words): less toxic
death with maximum administrable dose: no death was observed

OC[C@H]1O[C@@H](O[C@H]2O[C@H](CO)[C@@H](O[C@H]3O[C@H](CO)[C@@H](O[C@H]4O[C@H](CO)[C@@H](O)[C@H](O)[C@H]4O)[C@H](O)[C@H]3O)[C@H](O)[C@H]2O)[C@H](O)[C@@H](O)[C@@H]1O [α-maltotriosyl β-glucoside, O-α-D-gluco- pyranosyl-(1→4)-O-α-D-glucopyranosyl-(1→4)-α-D-glucopyranosyl β-D-glucopyranoside]
acute toxicity (in words): less toxic
death with maximum administrable dose: no death was observed

OC[C@H]1O[C@H](O[C@@H]2O[C@H](CO)[C@@H](O[C@H]3O[C@H](CO)[C@@H](O)[C@H](O)[C@H]3O)[C@H](O)[C@H]2O)[C@H](O)[C@@H](O)[C@@H]1O [β-maltosyl α-glucoside, O-α-D-glucopyranosyl-(1→4)-β-D-glucopyranosyl α-D-glucopyranoside]
acute toxicity (in words): less toxic
death with maximum administrable dose: no death was observed

OC[C@H]1O[C@H](O[C@H]2[C@H](O)[C@@H](O)[C@H](O[C@H]3O[C@H](CO)[C@@H](O[C@H]4O[C@H](CO)[C@@H](O)[C@H](O)[C@H]4O)[C@H](O)[C@H]3O)O[C@@H]2CO)[C@H](O)[C@@H](O)[C@@H]1O [β-maltosyl α-maltoside, O-α-D-glucopyranosyl-(1→4)-β-D-glucopyranosyl α-D-maltoside]
acute toxicity (in words): less toxic
death with maximum administrable dose: no death was observed

OC[C@H]1O[C@H](O[C@@H]2O[C@H](CO)[C@@H](O[C@H]3O[C@H](CO)[C@@H](O[C@H]4O[C@H](CO)[C@@H](O)[C@H](O)[C@H]4O)[C@H](O)[C@H]3O)[C@H](O)[C@H]2O)[C@H](O)[C@@H](O)[C@@H]1O [β-maltotriosyl α-glucoside, O-α-D-glucopyranosyl-(1→4)-O-α-D-glucopyranosyl-(1→4)-β-D-glucopyranosyl α-D-glucopyranoside]
acute toxicity (in words): less toxic
death with maximum administrable dose: no death was observed
